# Laboratory results published in publication PMC8619914, “Development of Novel Peptides for the Antimicrobial Combination Therapy against Carbapenem-Resistant Acinetobacter baumannii Infection” (Pharmaceutics, 2021).
# Where two headings read alike, the source gives them in different places. Where no end group is shown, it is not given here.
# Tests used:
# [1] = system: Acinetobacter baumannii (KCCM 40203); experiment: microbe, parasite or virus in culture
# From the text: (§1) The Gram-negative bacterial strain Escherichia coli (KCTC 1682) and Gram-positive bacterial strain Staphylococcus aureus (KCTC 1621) were purchased from the Korean Collection for Type Cultures (Jeongeup, Korea). Acinetobacter baumannii (KCCM 40203) were purchased from Korea Culture Center of Microorganisms (Seoul, Korea). Additionally, five carbapenem-resistant Acinetobacter baumanii C1–C5 (CRAB C1–C5), which have the OXA-23 gene with carbapenem-resistance were collected from the patients with CRAB bacteremia, who presented symptoms and signs of infection at Korea University Anam Hospital (Seoul, Korea) (IRB registration no. 2020AN0157). The minimum inhibitory concentrations (MIC) of the AMP and antibiotics against the various bacterial strains were assessed using the serial dilution method on Muller–Hinton (MH) media, as described previously. […] Absorbance at 600 nm was measured using a SpectraMAX microplate reader (Molecular Devices, San Jose, CA, USA).
# (§2) Measurement of the minimum inhibitory concentrations (MIC) was conducted to determine the effect of the hydrophobicity of each antimicrobial peptide on its antimicrobial activity. MIC was defined as the minimum concentration that killed more than 99% of bacteria; it was measured against two standard Gram-negative bacteria (E. coli and A. baumanii), five clinically isolated CRAB (C1–C5), and one Gram-positive bacteria (S. aureus).
# CRAB C1 [2] = experiment: microbe, parasite or virus in culture; details: 16 h
# From the text: as §1, §2
# CRAB C2 [3] = experiment: microbe, parasite or virus in culture; details: 16 h
# From the text: as §1, §2
# CRAB C3 [4] = experiment: microbe, parasite or virus in culture; details: 16 h
# From the text: as §1, §2
# CRAB C4 [5] = experiment: microbe, parasite or virus in culture; details: 16 h
# From the text: as §1, §2
# CRAB C5 [6] = experiment: microbe, parasite or virus in culture; details: 16 h
# From the text: as §1, §2
# [7] = system: Escherichia coli (KCTC 1682); experiment: microbe, parasite or virus in culture
# From the text: as §1, §2
# [8] = system: Staphylococcus aureus (KCTC 1621); experiment: microbe, parasite or virus in culture
# From the text: as §1, §2
# [9] = system: Gram-negative bacterial strains; experiment: organism not typed
# From the text: as §1
# Geometric means (GM) were calculated to compare the relative antimicrobial activities of the analogs against Gram-negative bacteria. […] Next, the antibacterial mechanisms of peptides were investigated.
# CRAB C1 [10] = experiment: microbe, parasite or virus in culture; details: 16 h; remark: listed apart in the source
# Procedure: (§3) The synergistic effects of AMPs and antibiotics were measured using checkerboard assays. Serial dilutions of PapMA-3 and antibiotics were performed from 1 to […] of the MIC. Samples were then cross-mixed and cultured in MH medium with 2 × 10^5 CFU·ml^−^1 bacteria. Results were recorded after 16 h of incubation at 37 °C. The fractional inhibitory concentration index (FICI) was calculated according to the European Committee on Antimicrobial Susceptibility (EUCAST).
# (§4) The ability of PapMA-3 to facilitate these antibiotics in penetrating the bacterial membranes of Gram-negative bacteria was investigated.
# CRAB C2 [11] = experiment: microbe, parasite or virus in culture; details: 16 h; remark: listed apart in the source
# Procedure: as §3, §4
# CRAB C3 [12] = experiment: microbe, parasite or virus in culture; details: 16 h; remark: listed apart in the source
# Procedure: as §3, §4
# CRAB C4 [13] = experiment: microbe, parasite or virus in culture; details: 16 h; remark: listed apart in the source
# Procedure: as §3, §4
# CRAB C5 [14] = experiment: microbe, parasite or virus in culture; details: 16 h; remark: listed apart in the source
# Procedure: as §3, §4
# CRAB C1 biofilm = experiment: Biofilm inhibition, crystal violet; assay type: cell-based, carbapenem-resistant Acinetobacter baumannii; details: Acinetobacter baumannii; 32 μg·mL^−1, CRAB C1, compared to the control; read-out: percentage of biofilm inhibition
# Procedure: CRAB C1 cells (2 × 10^5 CFU·mL^−^1) were incubated with PapMA-3 and antibiotics in a tissue-culture well plate in MH medium containing 0.2% glucose for 16 h at 37 °C. The cells were stained with 0.1% (w/v) crystal violet in 0.25% (v/v) acetic acid for 1 h at room temperature; the dye complex was dissolved with ethanol. Absorbance at 595 nm was measured using SpectraMAX microplate reader (Molecular Devices) to quantify the biofilm formation.
# Biofilms were quantified by staining with crystal violet. (A) Absorbance of crystal violet-stained biofilms with treatment of PapMA-3 and antibiotics at a concentration range of 32 to 512 μg·mL^−1, assessed at 595 nm. […] CRAB C1 without peptides or antibiotics served as the control (red). Statistical analysis was performed using two-way ANOVA with Dunnett’s comparison test. The values are expressed as the mean ± SEM of three independent experiments and are statistically significant at ** p < 0.01 and *** p < 0.001. ns, not significant.
# CRAB C1 [15] = experiment: FE-SEM of membrane damage; assay type: cell-based, carbapenem-resistant Acinetobacter baumannii; details: erythromycin 128 μg·mL^−1 alone, 1 h and 2 h
# Procedure: The cells were washed using PBS, fixed in 1% osmium tetroxide for 1 h, and dehydrated using a graded ethanol series. After dehydration, ethanol contents in the sample were replaced with varying ratio (2:1, 1:1, 1:2, 0:1 v/v) of ethanol–isoamyl acetate mixture. The cells were fixed on a glass slide with hexamethyldisilzane, dried under reduced pressure, and platinum-coated; they were visualized using an FE-SEM (SU8020; Hitachi, Tokyo, Japan).
# Figure 7 FE-SEM images of CRAB C1 treated with PapMA-3. (A) Only CRAB C1. […] (F–I) same experiments after incubation for 1 h, respectively.
# HEK-293 cells = experiment: Cytotoxicity, WST-8 Cell Proliferation Assay; assay type: cell-based, human; details: 64 μg·mL^−1, 24 h, WST-8
# Procedure: (§5) Human embryonic kidney (HEK)-293 cells, purchased from Korean cell line bank (Seoul, Korea) were cultured in Dulbecco’s modified Eagle’s medium (DMEM) (Welgene, Gyeong-san, Korea) with 10% fetal bovine serum, 1% penicillin-streptomycin at 37 °C in a humidified 5% CO2 incubator as described previously. The cytotoxicity of the six PapMA peptides and melittin was determined using WST-8 Cell Proliferation Assay Kit (Biomax Co, Ltd., Seoul, Korea), according to the manufacturer’s instructions. […] The absorbance was measured at 450 nm using a SpectraMAX microplate reader (Molecular Devices).
# Figure 4 Cytotoxicity of PapMA analogs. (A) Cytotoxicity of PapMA and its analogs against HEK-293 cell. […] (B) Hemolysis activity of PapMA analogs against sRBC. The peptide was serially diluted and incubated with sRBC for 1 h with melittin as a control. Statistical analysis was performed using two-way ANOVA with Dunnett’s comparison test. The values are expressed as the mean ± SEM of three independent experiments and are statistically significant at ** p < 0.01; and *** p < 0.001. ns, not significant.
# HaCaT cells = experiment: Cytotoxicity, WST-8 Cell Proliferation Assay; assay type: cell-based, human; details: 32 μg·mL^−1, 24 h and 48 h, compared to blank control
# Procedure: as §5
# Figure 10 Cytotoxicity of PapMA-3 (A) Cytotoxicity of PapMA-3 against HEK-293 cells at 24 h and 48 h. (B) Cytotoxicity of PapMA-3 against HaCaT cell at 24 h and 48 h. Statistical analysis was performed using two-way ANOVA with Dunnett’s comparison test. The values are expressed as the mean ± SEM of three independent experiments and are statistically significant at * p < 0.05; *** p < 0.001; ns, not significant.
# CRAB C1 [16] = details: 50% human serum in MH medium, 16 h, 37 °C; measure of serum stability
# Procedure: Antibacterial activity of PapMA-3 in combination with imipenem was measured against CRAB C1 in the presence of 50% human serum. The treated cells were incubated for 16 h at 37 °C, and the absorbance at 600 nm was measured using a SpectraMAX microplate reader (Molecular Devices).
# [17] = MH media, 2 × 10^5 CFU·mL^−1, 37 °C, absorbance 600 nm
# [18] = checkerboard table, single agent, MH medium, 37 °C
compound,measurement,setting,value
CC[C@H]1OC(=O)[C@H](C)[C@@H](O[C@H]2C[C@@](C)(OC)[C@@H](O)[C@H](C)O2)[C@H](C)[C@@H](O[C@@H]2O[C@H](C)C[C@H](N(C)C)[C@H]2O)[C@](C)(O)C[C@@H](C)C(=O)[C@H](C)[C@@H](O)[C@]1(C)O [Erythromycin],MIC,"[1]; Acinetobacter baumannii, KCCM40203, 16 h, read-out: Minimum Inhibitory Concentration, A. baumanii",32 µg/mL
same,MIC,"CRAB C1 [2]; Acinetobacter baumannii, read-out: Minimum Inhibitory Concentration, CRAB C1",> 512 µg/mL
same,MIC,"CRAB C2 [3]; Acinetobacter baumannii, read-out: Minimum Inhibitory Concentration, CRAB C2",512 µg/mL
same,MIC,"CRAB C3 [4]; Acinetobacter baumannii, read-out: Minimum Inhibitory Concentration, CRAB C3",512 µg/mL
same,MIC,"CRAB C4 [5]; Acinetobacter baumannii, read-out: Minimum Inhibitory Concentration, CRAB C4",> 512 µg/mL
same,MIC,"CRAB C5 [6]; Acinetobacter baumannii, read-out: Minimum Inhibitory Concentration, CRAB C5",> 512 µg/mL
same,MIC,"[7]; Escherichia coli, KCTC1682, 16 h, read-out: Minimum Inhibitory Concentration, E. coli",16 µg/mL
same,MIC,"[8]; Staphylococcus aureus, KCTC1621, 16 h, read-out: Minimum Inhibitory Concentration, S.aureus",0.25 µg/mL
same,MIC,[9]; read-out: GM (mean MIC of Gram-negative bacterial strains),592 µg/mL
same,MIC,"CRAB C1 [10]; Acinetobacter baumannii, read-out: MIC alone, CRAB C1",> 512 µg/mL
same,MIC,"CRAB C2 [11]; Acinetobacter baumannii, read-out: MIC alone, CRAB C2",512 µg/mL
same,MIC,"CRAB C3 [12]; Acinetobacter baumannii, read-out: MIC alone, CRAB C3",512 µg/mL
same,MIC,"CRAB C4 [13]; Acinetobacter baumannii, read-out: MIC alone, CRAB C4",> 512 µg/mL
same,MIC,"CRAB C5 [14]; Acinetobacter baumannii, read-out: MIC alone, CRAB C5",> 512 µg/mL
same,inhibition at 32 µg/mL,CRAB C1 biofilm,37.7%
same,membrane integrity of CRAB C1 (FE-SEM),CRAB C1 [15],not altered
RWKIFKKIPKFLHSAKKW-NH2 [PapMA-3],"Minimum Inhibitory Concentration, A. baumanii","[1]; KCCM 40203, 16 h",16 µg/mL
same,"Minimum Inhibitory Concentration, A. baumannii, MH Media","[1]; KCCM 40203, 16 h",16 µg/mL
same,"Minimum Inhibitory Concentration, CRAB C1, MH Media","CRAB C1 [2]; MH media without serum, 37 °C",16 µg/mL
same,"Minimum Inhibitory Concentration, CRAB C1",CRAB C1 [2]; [17],16 µg/mL
same,"Minimum Inhibitory Concentration, CRAB C2",CRAB C2 [3]; [17],16 µg/mL
same,"Minimum Inhibitory Concentration, CRAB C3",CRAB C3 [4]; [17],16 µg/mL
same,"Minimum Inhibitory Concentration, CRAB C4",CRAB C4 [5]; [17],32 µg/mL
same,"Minimum Inhibitory Concentration, CRAB C5",CRAB C5 [6]; [17],16 µg/mL
same,"Minimum Inhibitory Concentration, E. coli, MH Media","[7]; KCTC 1682, 16 h",16 µg/mL
same,"Minimum Inhibitory Concentration, E. coli","[7]; MH media, 2 × 10^5 CFU·mL^−1, 37 °C, 16 h, absorbance 600 nm, MIC kills more than 99% of bacteria",16 µg/mL
same,"Minimum Inhibitory Concentration, S.aureus","[8]; KCTC 1621, 16 h",32 µg/mL
same,GM (mean MIC of Gram-negative bacterial strains),"[9]; seven Gram-negative strains, 256 assumed for MIC > 128 and 1024 for MIC > 512 μg·mL^−1",18 µg/mL
same,survival rate of HEK-293 cells,HEK-293 cells,100%
same,"cell proliferation and viability, HaCaT",HaCaT cells,remained unaltered
same,"MIC alone, CRAB C1",CRAB C1 [10]; [18],16 µg/mL
same,"MIC alone, CRAB C2",CRAB C2 [11]; [18],16 µg/mL
same,"MIC alone, CRAB C3",CRAB C3 [12]; [18],16 µg/mL
same,"MIC alone, CRAB C4",CRAB C4 [13]; [18],32 µg/mL
same,"MIC alone, CRAB C5",CRAB C5 [14]; [18],16 µg/mL
same,"Minimum Inhibitory Concentration, CRAB C1, + Serum (50%)",CRAB C1 [16],64 µg/mL
